Tested on: Theobroma cacao L. CCN-10 clones, primary somatic embryo epicotyl/cotyledon explants
Assay: Direct secondary somatic embryogenesis from primary somatic embryo explants (hormone balance and stressor test)
Format: cell-based
Description: For the production of secondary embryos, epicotyls are taken from primary somatic embryos with size 1 cm and 40 mg of weight and they were cut in 10-15 pieces and placed into flask with 25 ml of liquid medium for embryogenic induction (Table 5) with some modifications in the experimental design (Table 7) per 5 weeks (step c). The culture is exposed to a light:dark 16:8 photoperiod, at a temperature of 27±2° C. and photosynthetic active radiation (PAR) or photosynthetic photon flux density (PPFD) of 50-190 μmol/m^2 per second. After this period, the somatic embryos in globular stage are transferred into the Petri dish in semi-solid developing media (Table 6) with some modifications (Table 8), with a 21-day culture period in light conditions until the embryos express and develop to the heart or early torpedo stage. Afterward, the cultures were transferred into the Petri dish in the same medium, but without gibberellic acid and with the same culture conditions but in the dark with transferences every 14 days for embryo's maturation. A variety of media were tested to assess the concentrations of plant hormones and stressors to be used in direct secondary somatic embryogenesis, as set forth in the following tables: [table] [table] Cotyledon explants were collected 40 days after induction and were used for study. Samples were fixed with FAA [10% formalin, 5% acetic acid, 50% ethanol (v/v)] per 8 days. The sample must be previously cut into approximately 0.5 to 1.0 mm. Do three (3) washes of 5 minutes each with distilled water or buffer to remove the fixative. […] the material in increasing concentrations of ethanol for at least 1 h of 70%, 85% and 95% at room temperature (incubation time varies with the kind of the material). Since the experiments were established, evaluations have been performed every 14 days, and some dependent variables like: number of calluses formed, number of normal embryos without callus formation, number of abnormal embryos without callus formation, number of pro-embryogenic masses, number of torpedo embryos, number of heart embryos, number of globular embryos, and overall observations. The Dino-Lite digital microscope premier, AM4113/AD4113 series was used for the observations. The experiment was a sequence of mediums where the first was induction medium (Table 7) followed by combination with develop medium (Table 8). The factorial analysis was 5×2, in view of the testing of 2 sucrose concentrations (40 and 80 g/l) and 5 gibberellic acid concentrations (0.0, 0.2, 0.4, 0.6 and 1.0 mg/l), using a completely randomized design.

| Compound | direct somatic embryos developed by embryonic regions of cotyledon explants (histological analysis) (induction medium with 1.0 mg/L BAP and 40 g/L sucrose, 40 days of culture (FIG. 5)) | quantity of abnormal embryos (1 mg/l gibberellic acid and 40 g/l sucrose in development medium, compared with the other treatments (FIG. 4)) | expression of direct somatic embryos (number of embryos produced) (different concentrations of gibberellic acid in combination with 40 g/L or 80 g/L sucrose (FIG. 4)) | normal embryos (sequence of media: induction 1.0 mg/l BAP + 40 g/l sucrose, light, 40 days, then 0.6 mg/l gibberellic acid + 40 g/l sucrose, light, 21 days, then same medium without gibberellic acid, darkness) [%] |
| --- | --- | --- | --- | --- |
| c1ccc(CNc2ncnc3nc[nH]c23)cc1 [BAP, 6-benzylaminopurine] | large numbers of direct somatic embryos in globular and heart stage | – | – | – |
| C=C1C[C@]23C[C@@]1(O)CC[C@H]2[C@@]12C=C[C@H](O)[C@@](C)(C(=O)O1)[C@H]2[C@@H]3C(=O)O [gibberellic acid] | – | highest quantity of abnormal embryos | influenced the expression of direct somatic embryos | 83.3 |
